Experimental data taken from patent publication US20240376094A2, “SELECTIVE BCL-XL PROTAC COMPOUNDS AND METHODS OF USE” (Les Laboratoires Servier, priority 2021, published 2024).

How the values were obtained:
Type in all cases: cell-based
COR-L105 = test: CellTiter-Glo proliferation assay, COR-L105; details: Homo sapiens, COR-L105, 120 h, COR-L105, 5 days; for Emax: read-out: COR-L105 Span (max)
Experimental: (§1) The BCL-xL degrader compounds were tested against two endogenous cancer cell lines: • COR-L105: ECACC No. 92031918 cultured in RPMI-1640+10% FBS • NCI-H1650: (ATCC No. CRL-5883 cultured in RPMI-1640+10% FBS
(§2) The ability of the BCL-xL degrader low molecular weight compounds to inhibit cell proliferation and survival was assessed using the Promega CellTiter-Glo® proliferation assay.
(§3) Cell lines were cultured in media that is optimal for their growth at 5% CO2, 37° C. in a tissue culture incubator. Prior to seeding for the proliferation assay, the cells were split at least 2 days before the assay to ensure optimal growth density. On the day of seeding, adherent cells were lifted off tissue culture flasks using 0.25% trypsin. Cell viability and cell density were determined using a cell counter (Vi-Cell XR Cell Viability Analyzer, Beckman Coulter). Cells with higher than 85% viability were seeded for the assay.
(§4) The COR-105 cell line was seeded in white, clear bottom 384-well TC treated plates (Corning cat. #3765). Cells were seeded at a density of 1,000 cells per well in 45 μL of standard growth media. Plates were incubated at 5% CO2, 37° C. overnight in a tissue culture incubator. The NCI-H1650 cell line was seeded in black, clear round bottom 384-well ultra-low attachment spheroid microplates (Corning cat. #3830). Cells were seeded at a density of 3,000 cells per well in 45 uL of standard growth media. Plates were spun in a centrifuge for 5 minutes and 1,000 RPM. Plates were incubated at 5% CO2, 37° C. for 72 hours in a tissue culture incubator.
(§5) On the day of dosing, BCL-xL degrader low molecular weight compounds were prepared at 1 OX in standard growth media. The prepared drug treatments were then added to the cells resulting in final concentrations of 0.508 nM-10 μM and a final volume of 50 μL per well. Each drug concentration was tested in quadruplets. Plates were incubated at 5% CO2, 37° C. for 5 days in a tissue culture incubator.
(§6) For COR-L105 plates, cell viability was assessed through the addition of 25 μL of CellTiter Glo® (Promega, cat #G7573), a reagent which lyses cells and measures total adenosine triphosphate (ATP) content. Plates were incubated at room temperature for 10 minutes to stabilize luminescent signals prior to reading with a luminescence reader (EnVision Multilabel Plate Reader, PerkinElmer). For NCI-H1650 plates, cell viability was assessed through the addition of 40 μL of CellTiter Glo® 3D Cell Viability Assay substrate (Promega, cat #G9681), a reagent which lyses cells and measures total adenosine triphosphate (ATP) content. Wells were mixed thoroughly and plates were incubated at room temperature for 30 minutes to stabilize luminescent signals prior to reading using a luminescence reader (EnVision Multilabel Plate Reader, PerkinElmer).
(§7) To evaluate the effect of the drug treatments, luminescent counts from wells containing untreated cells (100% viability) were used to normalize treated samples. A variable slope model was applied to fit a nonlinear regression curve to the data in GraphPad PRISM version 7.02 software. IC50 and Amax values were extrapolated from the resultant curves. The concentrations of treatment required to inhibit 50% of cell growth or survival (IC50) were calculated with representative IC50 values of the cell lines tested summarized in Table 11.

NCI-H1650 = test: CellTiter-Glo 3D proliferation assay, NCI-H1650 spheroids; details: Homo sapiens, NCI-H1650, 120 h, 5 days; for Emax: read-out: NCI-H1650 Span (Amax)
Experimental: as §1, §2, §3, §4, §5, §6, §7

HiBiT-tagged BCL-xL = target: T1, HiBiT-tagged BCL-xL (Homo sapiens, UniProt Q07817); test: NCI-H1650 BCL-xL protein levels, Nano-Glo HiBiT Lytic Detection; details: NCI-H1650 expressing HiBiT-tagged BCL-xL, overnight incubation, read-out: Bcl-xl HIBIT NCIH1650 DC50
T1 construct: expressed in transfected cells; host or cells: NCI-H1650 (ATCC No. CRL-5883), engineered HiBiT cell line
Outline: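 NCI-H1650 cells expressing HiBiT-tagged BCL-xL (5000/well) were treated overnight at 37° C with 10 concentrations, final 0.508 nM-10 μM, in triplicate. Remaining BCL-xL measured by Nano-Glo HiBiT lytic luminescence, normalized to untreated cells; 50% values by four-parameter logistic fit.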

Bcl-xL = target: T2, Bcl-xL (Homo sapiens, UniProt Q07817); test: HCT116 Bcl-xL degradation, capillary-based immunoassay (WES); details: HCT116, 24 h, 9-point serial dilution
T2 construct: Measured levels of Bcl-xL protein of HCT116 cells treated with the tested compounds; host or cells: HCT116
Outline: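 HCT116 cells treated 24 h with compound at 10/100 nM and/or 9-point dilution (quadruplicates), then lysed. Bcl-xL measured by capillary WES immunoassay, normalized to cofilin and expressed as % of untreated cells. DC50 from four-parameter curve fit.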

MOLT-4 cells = test: MOLT-4 cell viability, CTG assay; details: Homo sapiens, MOLT-4, 48 h
Outline: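 Cells grown in RPMI 1640 with 10% FBS at 37° C, 5% CO2, then exposed to compounds for 48 h (11-point 5-fold dilution, triplicates). ATP measured by CellTiter-Glo luminescence; IC50 from four-parameter fit versus control, mean of ≥2 independent experiments.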

[1] = system: EBC-1 lung cancer cell line; test: EBC-1 cell proliferation, CellTiter-Glo assay; details: Homo sapiens, 120 h; Ebc-1 cell viability, CTG assay, 5 days of treatment; read-out: CTG 5 day Ebc1 GI50
Outline: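 EBC-1 cells seeded at 1000 per well overnight, then exposed to 10-point dilutions (0.508 nM–10 μM final) for 5 days at 37 °C, in triplicate. ATP luminescence by CellTiter-Glo, normalised to untreated wells; GI50 from four-parameter logistic fit, runs valid only with at least one doubling.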

T2 sequence (Q07817 whole entry): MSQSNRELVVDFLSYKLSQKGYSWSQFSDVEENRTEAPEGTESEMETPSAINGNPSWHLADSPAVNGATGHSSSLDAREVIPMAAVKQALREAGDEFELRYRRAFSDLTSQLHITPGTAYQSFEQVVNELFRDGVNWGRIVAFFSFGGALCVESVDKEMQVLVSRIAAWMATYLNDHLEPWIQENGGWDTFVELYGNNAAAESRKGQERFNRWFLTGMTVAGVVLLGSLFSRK
T1 sequence (Q07817 whole entry): as above

Structure (SMILES)	IC50 (NCI-H1650)	DC50 (HiBiT-tagged BCL-xL)	DC50 (Bcl-xL)	IC50 (MOLT-4 cells)	GI50 [1]	IC50 (COR-L105)	Emax (COR-L105)	Emax (NCI-H1650)
Cc1ncsc1-c1ccc(CNC(=O)[C@@H]2C[C@@H](O)CN2C(=O)[C@@H](NC(=O)C2(F)CC2)C(C)(C)C)c(OCCCCCCCCCCCCN2CCN(CC#Cc3ccc(OCCCc4sc(N5CCCc6c5nnc(Nc5nc7ccccc7s5)c6C)nc4C(=O)O)c(F)c3)CC2)c1 [Example 55, 2-(3-(benzo[d]thiazol-2-ylamino)-4-methyl-6,7-dihydropyrido [2,3-c]pyridazin-8(5H)-yl)-5-(3-(2-fluoro-4-(3-(4-(12-(2-(((2S,4R)-1-((S)-2-(1-fluorocyclopropane-1-carboxamido)-3,3-dimethylbutanoyl)-4-hydroxypyrrolidine-2-carboxamido)methyl)-5-(4-methylthiazol-5-yl)phenoxy)dodecyl)piperazin-1-yl)prop-1-yn-1-yl)phenoxy)propyl)thiazole-4-carboxylic acid]	302 nM					1160 nM	81%	78.8%
Cc1ncsc1-c1ccc(CNC(=O)[C@@H]2C[C@@H](O)CN2C(=O)[C@@H](NC(=O)C2(F)CC2)C(C)(C)C)c(OCCCCCCCCN2CCN(CC#Cc3ccc(OCCCc4sc(N5CCCc6c5nnc(Nc5nc7ccccc7s5)c6C)nc4C(=O)O)c(F)c3)CC2)c1 [Example 56, 2-(3-(benzo[d]thiazol-2-ylamino)-4-methyl-6,7-dihydropyrido [2,3-c]pyridazin-8(5H)-yl)-5-(3-(2-fluoro-4-(3-(4-(8-(2-(((2S,4R)-1-((S)-2-(1-fluorocyclopropane-1-carboxamido)-3,3-dimethylbutanoyl)-4-hydroxypyrrolidine-2-carboxamido)methyl)-5-(4-methylthiazol-5-yl)phenoxy)octyl)piperazin-1-yl)prop-1-yn-1-yl)phenoxy)propyl)thiazole-4-carboxylic acid]	110 nM					473 nM	82%	84.2%
Cc1ncsc1-c1ccc(CNC(=O)[C@@H]2C[C@@H](O)CN2C(=O)[C@@H](NC(=O)C2(F)CC2)C(C)(C)C)c(OCCCCCCCCCCCCCCN(C)CCOC23CC4(C)CC(C)(CC(Cn5ncc(-c6ccc(N7CCCc8c7nnc(Nc7nc9ccccc9s7)c8C)nc6C(=O)O)c5C)(C4)C2)C3)c1 [Example 146, 6-[3-(1,3-benzothiazol-2-ylamino)-4-methyl-6,7-dihydro-5H-pyrido[2,3-c]pyridazin-8-yl]-3-[1-[[3-[2-[14-[2-[[[(2S,4R)-1-[(2S)-2-[(1-fluorocyclopropanecarbonyl)amino]-3,3-dimethyl-butanoyl]-4-hydroxy-pyrrolidine-2-carbonyl]amino]methyl]-5-(4-methylthiazol-5-yl)phenoxy]tetradecyl-methyl-amino]ethoxy]-5,7-dimethyl-1-adamantyl]methyl]-5-methyl-pyrazol-4-yl]pyridine-2-carboxylic acid]		> 1670 nM	0.986 nM	3 nM	3 nM			
Cc1ncsc1-c1ccc([C@H](C)NC(=O)[C@@H]2C[C@@H](O)CN2C(=O)[C@@H](NC(=O)CCCCCCCCCCCCCN(C)CCOC23CC4(C)CC(C)(CC(Cn5ncc(-c6ccc(N7CCCc8c7nnc(Nc7nc9ccccc9s7)c8C)nc6C(=O)N(C)C)c5C)(C4)C2)C3)C(C)(C)C)cc1 [Example 148, 6-[3-(1,3-benzothiazol-2-ylamino)-4-methyl-6,7-dihydro-5H-pyrido[2,3-c]pyridazin-8-yl]-3-[1-[[3-[2-[[14-[[(1S)-1-[(2S,4R)-4-hydroxy-2-[[(1S)-1-[4-(4-methylthiazol-5-yl)phenyl]ethyl]carbamoyl]pyrrolidine-1-carbonyl]-2,2-dimethyl-propyl]amino]-14-oxo-tetradecyl]-methyl-amino]ethoxy]-5,7-dimethyl-1-adamantyl]methyl]-5-methyl-pyrazol-4-yl]-N,N-dimethyl-pyridine-2-carboxamide]		1 nM	1.37 nM	4.51 nM	7 nM			

More lines, main results first:

IC50 (NCI-H1650)	DC50 (HiBiT-tagged BCL-xL)	DC50 (Bcl-xL)	IC50 (MOLT-4 cells)	GI50 [1]	Structure (SMILES)	IC50 (COR-L105)	Emax (COR-L105)	Emax (NCI-H1650)
	> 1670 nM	10.3 nM	6.59 nM	222 nM	Cc1ncsc1-c1ccc([C@H](C)NC(=O)[C@@H]2C[C@@H](O)CN2C(=O)[C@@H](NC(=O)CCCCCCCCCCCCCN(C)CCOC23CC4(C)CC(C)(CC(Cn5ncc(-c6ccc(N7CCCc8c7nnc(Nc7nc9ccccc9s7)c8C)nc6C(N)=O)c5C)(C4)C2)C3)C(C)(C)C)cc1 [Example 154, 6-[3-(1,3-benzothiazol-2-ylamino)-4-methyl-6,7-dihydro-5H-pyrido[2,3-c]pyridazin-8-yl]-3-[1-[[3-[2-[[14-[[(1S)-1-[(2S,4R)-4-hydroxy-2-[[(1S)-1-[4-(4-methylthiazol-5-yl)phenyl]ethyl]carbamoyl]pyrrolidine-1-carbonyl]-2,2-dimethyl-propyl]amino]-14-oxo-tetradecyl]-methyl-amino]ethoxy]-5,7-dimethyl-1-adamantyl]methyl]-5-methyl-pyrazol-4-yl]pyridine-2-carboxamide]			
	228 nM	14.5 nM	6.48 nM	27 nM	CNC(=O)c1nc(N2CCCc3c2nnc(Nc2nc4ccccc4s2)c3C)ccc1-c1cnn(CC23CC4(C)CC(C)(C2)CC(OCCN(C)CCCCCCCCCCCCCC(=O)N[C@H](C(=O)N2C[C@H](O)C[C@H]2C(=O)N[C@@H](C)c2ccc(-c5scnc5C)cc2)C(C)(C)C)(C4)C3)c1C [Example 156, 6-[3-(1,3-benzothiazol-2-ylamino)-4-methyl-6,7-dihydro-5H-pyrido[2,3-c]pyridazin-8-yl]-3-[1-[[3-[2-[[14-[[(1S)-1-[(2S,4R)-4-hydroxy-2-[[(1S)-1-[4-(4-methylthiazol-5-yl)phenyl]ethyl]carbamoyl]pyrrolidine-1-carbonyl]-2,2-dimethyl-propyl]amino]-14-oxo-tetradecyl]-methyl-amino]ethoxy]-5,7-dimethyl-1-adamantyl]methyl]-5-methyl-pyrazol-4-yl]-N-methyl-pyridine-2-carboxamide]			
